From paper PMC9828224, “Expansion of the Catalytic Repertoire of Alcohol Dehydrogenases in Plant Metabolism” (Angewandte Chemie (International Ed. in English), 2022)

Key:
[1] = target: T1, GS (Catharanthus roseus, UniProt W8JWW7); assay: X-ray crystal structure of complex, […] Å; assay type: binding; settings: active site; catalytic and structural zinc bound
T1 construct: construct details only in supplement

[2] = target: T2, CrDPAS (Catharanthus roseus, UniProt A0A1B1FHP3); assay: enzymatic turnover, products by MS and NMR with deuterated cofactor; assay type: biochemical; settings: NADPH or 4-pro-R-NADPD; 1,4-iminium reduction
T2 construct: gene DPAS; construct details only in supplement; text prints PDB 8B26 for both CrDPAS and apo TiDPAS2
T2 sequence (A0A1B1FHP3 1-365): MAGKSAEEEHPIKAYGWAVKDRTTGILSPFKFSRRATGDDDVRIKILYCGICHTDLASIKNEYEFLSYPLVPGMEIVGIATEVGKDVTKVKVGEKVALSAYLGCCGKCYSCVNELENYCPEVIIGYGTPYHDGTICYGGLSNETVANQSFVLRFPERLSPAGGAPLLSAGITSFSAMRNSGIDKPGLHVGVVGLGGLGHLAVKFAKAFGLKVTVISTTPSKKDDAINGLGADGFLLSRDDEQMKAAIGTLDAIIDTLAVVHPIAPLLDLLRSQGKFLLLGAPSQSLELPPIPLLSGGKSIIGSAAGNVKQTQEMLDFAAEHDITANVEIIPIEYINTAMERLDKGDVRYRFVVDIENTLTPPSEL

T1 sequence (W8JWW7 2-364): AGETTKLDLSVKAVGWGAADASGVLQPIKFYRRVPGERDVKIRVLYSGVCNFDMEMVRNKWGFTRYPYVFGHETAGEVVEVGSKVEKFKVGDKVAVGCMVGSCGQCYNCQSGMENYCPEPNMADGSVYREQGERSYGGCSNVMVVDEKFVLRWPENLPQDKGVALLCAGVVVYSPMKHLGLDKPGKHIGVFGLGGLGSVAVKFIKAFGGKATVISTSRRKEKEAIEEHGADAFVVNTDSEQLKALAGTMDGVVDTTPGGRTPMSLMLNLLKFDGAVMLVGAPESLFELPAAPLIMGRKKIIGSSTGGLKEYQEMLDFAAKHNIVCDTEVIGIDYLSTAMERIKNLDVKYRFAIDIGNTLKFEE

SMILES	X-ray crystal structure of complex, 2.00 Å [1]	enzymatic turnover, products by MS and NMR with deuterated cofactor [2]
NC(=O)c1ccc[n+]([C@@H]2O[C@H](COP(=O)(O)OP(=O)(O)OC[C@H]3O[C@@H](n4cnc5c(N)ncnc54)[C@H](OP(=O)(O)O)[C@@H]3O)[C@@H](O)[C@H]2O)c1 [NADP+]	Active site of GS co‐crystallised with NADP^+	
C/C=C1/C=[N+]2CCc3c([nH]c4ccccc34)[C@@](COC(C)=O)(C(=O)OC)[C@H]1CC2 [precondylocarpine acetate]		we observed product formation when only DPAS and NADPH is incubated with precondylocarpine acetate
